In PMC9810167, “Novel dual LSD1/HDAC6 inhibitor for the treatment of cancer” (PLOS ONE, 2023):
Read-outs that look alike come from different tables or passages of the source.

How the values were obtained:
HEL 92.1.7 = assay: Cell proliferation assay (Alamar Blue); format: cell-based, human; details: for EC50: Homo sapiens
Protocol: (§1) Cells were seeded in NUNC 96-well tissue culture plates (Life Technologies) in […] culture medium and incubated at 37°C/ 5% CO2 to adhere to plastic for 18–24 h. […] One set of plates (designated for the 144 h read out) were centrifuged at low speed for 30 seconds, and respective compounds were replenished in fresh media and incubated for another 68–72 h at 37°C/ 5% CO2. […] The inhibition curve was then fitted by plotting % inhibition against log concentration in GraphPad Prism 5.0 (GraphPad Software, Inc.) and the GI50 value of compound was determined. Data are representative of at least two independent experiments.

class I HDACs = system: class I HDACs; design: method as in PMID 22262760; details: read-out: potency on class I HDACs; cited from earlier work
HDAC1 = biological target: T1, HDAC1 (Homo sapiens, UniProt Q13547); assay: HDAC isoform inhibition assay (Reaction Biology); format: biochemical; details: generated at Reaction Biology Corporation
T1 construct: purchased Reaction Biology Corporation (assay run at the CRO)

HDAC2 = biological target: T2, HDAC2 (Homo sapiens, UniProt Q92769); assay: HDAC isoform inhibition assay (Reaction Biology); format: biochemical; details: generated at Reaction Biology Corporation
T2 construct: purchased Reaction Biology Corporation (assay run at the CRO)
Protocol: (§2) Dose-response studies for HDAC isoforms were conducted at Reaction Biology Corporation. All assays are based on the same principle of a two-step reaction: first, the substrate with the acetylated lysine side chain is incubated with a sample containing HDAC enzyme, to produce the deacetylated products, which are then digested in the second step by the addition of the developer to produce the fluorescent signal proportional to the amount of deacetylated substrates. Recombinant proteins HDAC1, HDAC2, HDAC3, HDAC4, HDAC5, HDAC6, HDAC7, HDAC8, HDAC9, and HDAC10 were incubated with a test compound for 5min, and then the fluorophore-conjugated substrate was added to the wells and incubated for 30 min to 2 h for different HDACs. Reactions were performed in assay buffer (50 mM Tris-HCl, pH 8.0, 137 mM NaCl, 2.7 mM KCl, 1 mM MgCl2, 1 mg/mL BSA, 1% DMSO, pH 7.4) and fluorescence measurements were obtained approximately every 20 min for an hour using an Envision, Perkin-Elmer plate reader (Excitation 360 nm/Emission 460 nm). IC50 values and curve fits were obtained using (GraphPad Prism Software, Inc.).

HDAC5 = biological target: T3, HDAC5 (Homo sapiens, UniProt Q9UQL6); assay: HDAC isoform inhibition assay (Reaction Biology); format: biochemical; details: generated at Reaction Biology Corporation
T3 construct: purchased Reaction Biology Corporation (assay run at the CRO)
Protocol: as §2

HDAC7 = biological target: T4, HDAC7 (Homo sapiens, UniProt Q8WUI4); assay: HDAC isoform inhibition assay (Reaction Biology); format: biochemical; details: generated at Reaction Biology Corporation
T4 construct: purchased Reaction Biology Corporation (assay run at the CRO)
Protocol: as §2

HDAC9 = biological target: T5, HDAC9 (Homo sapiens, UniProt Q9UKV0); assay: HDAC isoform inhibition assay (Reaction Biology); format: biochemical; details: generated at Reaction Biology Corporation
T5 construct: purchased Reaction Biology Corporation (assay run at the CRO)
Protocol: as §2

remaining HDACs = assay: HDAC panel HDAC1 to HDAC10, remaining HDACs (other than HDAC6 and HDAC8); format: biochemical; details: about […] to >10 μM, read-out: IC50 against the remaining HDACs
Protocol: as §2

hHDAC8 = hHDAC8 (Homo sapiens, UniProt Q9BY41); assay: Thermal shift assay (SYPRO Orange); format: binding; details: protein:compound 1:15; Tm without compound 41°C
Protocol: (§3) The melting temperature (Tm) of human LSD1 and HDAC8 proteins were determined by fluorescence based thermal shift assay. Reaction mixture containing 0.5 μM protein, 5X SYPRO™ Orange Protein Gel Stain (Thermo Fisher Scientific Cat: S6650), compound at 10-fold excess for hLSD1, 15-fold excess for hHDAC8. The final volume made up with respective protein buffers. All experiments were done in triplicates at 50 μL reaction volume. The samples heated from 15°C to 95°C with an increment of 1°C per 30sec using CFX96™ Real-Time PCR Detection system–C1000 Thermal Cycler (Bio-Rad). Filters custom configured to the optimal excitation (492 nm) and emission (610 nm) wavelengths for SYPRO orange dye. Protein denaturation monitored by the increase in fluorescence signal emitted by SYPRO Orange. The SYPRO Orange binds to the exposed hydrophobic regions of protein undergoing thermal denaturation and corresponding fluorescence emissions are recorded as melt curves. The temperature corresponding to the inflection point, Tm is determined by calculating the first derivative from melt curve using CFX manager 3.1 software (Bio-Rad).

human LSD1 = biological target: T6, human LSD1 (Homo sapiens, UniProt O60341); assay: Thermal shift assay (SYPRO Orange); format: binding; details: protein:compound 1:10; Tm in the absence of compound 43°C
T6 construct: Tm of full length LSD1 protein in the absence of compound was 43°C
Protocol: as §3

Colo-289 = assay: Cell proliferation assay (Alamar Blue); format: cell-based; details: Colo-289, Melanoma, 144 h
Protocol: as §1

G362 = assay: Cell proliferation assay (Alamar Blue); format: cell-based; details: G362, Melanoma, 144 h
Protocol: as §1

H1341 = assay: Cell proliferation assay (Alamar Blue); format: cell-based; details: H1341, SCLC, 144 h
Protocol: as §1

H2171 = assay: Cell proliferation assay (Alamar Blue); format: cell-based; details: Homo sapiens, NCI-H2171; H2171, SCLC, 144 h
Protocol: as §1

H510A = assay: Cell proliferation assay (Alamar Blue); format: cell-based; details: Homo sapiens, NCI-H510A, SCLC, 144 h
Protocol: as §1

HL60-MX1 = assay: Cell proliferation assay (Alamar Blue); format: cell-based; details: HL60-MX1, Leukemia, 144 h
Protocol: as §1

HL60 = assay: Cell proliferation assay (Alamar Blue); format: cell-based; details: Homo sapiens, HL-60; HL60, Leukemia, 144 h
Protocol: as §1

HT144 = assay: Cell proliferation assay (Alamar Blue); format: cell-based; details: Homo sapiens, HT-144; HT144, Melanoma, 144 h
Protocol: as §1

Hep-G2 = assay: Cell proliferation assay (Alamar Blue); format: cell-based; details: Homo sapiens, HepG2; Hep-G2, Hepatocellular Carcinoma, 144 h
Protocol: as §1

Hep3B2 = assay: Cell proliferation assay (Alamar Blue); format: cell-based; details: Homo sapiens, Hep3B; Hep3B2, Hepatocellular Carcinoma, 144 h
Protocol: as §1

MM1.R = assay: Cell proliferation assay (Alamar Blue); format: cell-based; details: MM.1R, Multiple Myeloma, 144 h
Protocol: as §1

OCI-AML3 = assay: Cell proliferation assay (Alamar Blue); format: cell-based; details: Homo sapiens, OCI-AML-3; OCI-AML3, Leukemia, 144 h
Protocol: as §1

RPMI-7591 = assay: Cell proliferation assay (Alamar Blue); format: cell-based; details: RPMI-7591, Melanoma, 144 h
Protocol: as §1

SKMeI2 = assay: Cell proliferation assay (Alamar Blue); format: cell-based; details: SKMeI2, Melanoma, 144 h
Protocol: as §1

THP-1 = assay: Cell proliferation assay (Alamar Blue); format: cell-based; details: Homo sapiens; THP-1, Leukemia, 144 h
Protocol: as §1

WM-266-4 = assay: Cell proliferation assay (Alamar Blue); format: cell-based; details: Homo sapiens; WM-266-4, Melanoma, 144 h
Protocol: as §1

[1] = system: panel of non-small lung cancer, melanoma, and hepatocellular carcinoma tumor cell lines; assay: Cell proliferation assay, solid tumor cell line panel; format: cell-based; details: 144 h; 6 days; range over cell lines; read-out: EC50 values across solid tumor panel
Protocol: as §1

CD11b = assay: Differentiation marker mRNA by RT-qPCR in HEL 92.1.7 cells; format: cell-based, human; details: HEL92.1.7, 3–48 h
Protocol: (§4) Total RNA was isolated using the TRIzol (Thermo Fisher Scientific, Waltham, MA, USA) reagent according to the manufacturer's instructions. The obtained RNA was reverse-transcribed to synthesize the complementary DNA from RNA using High Capacity cDNA Reverse Transcription Kit (Applied Biosystems, U.S.). DyNAmo ColorFlash SYBR Green qPCR Kit (Thermo Fisher Scientific) was used with cDNA and gene specific primers at a final volume of 10 μL. Real-time quantitative PCR was performed for 40 cycles of 15 s each, at 95°C and 30 s at 60°C, using a CFX96 real time machine (Bio-Rad). All reactions were performed in duplicate and the data was calculated using the delta (delta Ct) method. The relative gene expression levels for a target gene was normalized to the expression of β-actin. All the primer sequences were procured from Eurofins Genomics India Limited. Primer sequences for the analysed genes are as follows: • beta Actin [NT], beta Actin [NT]. Gfi1b [NT], Gfi1b [NT], CD86 [NT], CD86 […], CD11b [NT]

CD86 = assay: as above; format: cell-based, human; details: HEL92.1.7, 3–48 h
Protocol: as §4

GFI1b = assay: as above; format: cell-based, human; details: HEL92.1.7, 3–48 h
Protocol: as §4

acetylation of α-Tubulin = assay: Western blot of tubulin acetylation in HEL92.1.7 cells; format: cell-based, human; details: HEL92.1.7, 3 to 48 h, 8 point dose response from 10 μM
Protocol: Cells were harvested and washed twice with cold PBS after the indicated treatments. Cell pellets were lysed in 30μl of lysis buffer (50 mM Tris-HCl, pH 7.4, 150 mM NaCl, 1% Triton X-100, 0.1% SDS, 1 mM EDTA, 1 mM Na3VO4, 1 mM NaF, and protease inhibitor cocktail) for 30 min on ice. Lysates were centrifuged at 12,000 ×g for 20 min at 4°C, and the protein content in the supernatants was determined using the Bradford reagent (Bio-Rad). Equal amount of protein lysate was resolved by SDS-PAGE and transferred onto a nitrocellulose membrane (Bio-Rad). Membranes were blocked with 5% non-fat milk powder in PBS-Tween 20 buffer for 1 h, followed by incubation with primary antibody at 4°C overnight. Membranes were washed in PBST and then incubated with HRP-conjugated anti-goat or mouse anti- IgG (Cell Signalling Technology) antibody and detected using the Millipore ECL Western Blot substrate. β-actin was used as a loading control. Antibodies were obtained from the following sources: Acetyl-α- Tubulin (Cell Signalling Technology, […], 1:500), β-actin (Santa Cruz Biotechnology, sc47778, 1:2000), HRP-conjugated secondary antibodies (Santa Cruz Biotechnology, 1:2000 for β-actin blots, 1:1000 for all others). Blots shown are representative of at least two independent experiments.

[2] = system: HEL92.1.7 xenograft tumors; assay: HEL92.1.7 erythroleukaemia xenograft model; format: in vivo; details: for % tumor growth inhibition (TGI): PO, QD, 14 days
MM1.S xenograft = assay: MM1.S multiple myeloma xenograft model; format: in vivo; details: for TGI: 13 d
CT-26 syngeneic tumors = assay: CT-26 mouse colon cancer syngeneic model; format: in vivo, BALB/c mice; details: 14 d
Protocol: For CT-26 syngeneic mouse colon cancer model female BALB/c (6–8 weeks old, Vivo Biotech, India) were used. 1x10^6 CT26 tumor cells in 100 μL of serum-free medium mixed with 1:1 ratio of matrigel were injected s.c. into the right flank of mice. […] During the experiment, body weights were measured 2–3 times a week and tumor volume was measured using callipers every other day in three dimensions. Tumor volume was calculated from the pi-based ellipsoid volume formula π/6*length*width*height. Mice were culled when the tumor volume reached either the ethical limit of 2000 mm^3 or if the tumor was ulcerated. The percentage change in tumor volume from baseline was used to assess the response to treatment. Tumor measurements were performed in a blinded manner throughout the study.

[3] = HEL 92.1.7, read-out: anti-proliferative EC50, HEL92.1.7, 3 days (72 h) of incubation
[4] = HEL 92.1.7, Leukemia, 144 h, read-out: EC50, 144hr

T4 sequence (Q8WUI4 whole entry, canonical isoform): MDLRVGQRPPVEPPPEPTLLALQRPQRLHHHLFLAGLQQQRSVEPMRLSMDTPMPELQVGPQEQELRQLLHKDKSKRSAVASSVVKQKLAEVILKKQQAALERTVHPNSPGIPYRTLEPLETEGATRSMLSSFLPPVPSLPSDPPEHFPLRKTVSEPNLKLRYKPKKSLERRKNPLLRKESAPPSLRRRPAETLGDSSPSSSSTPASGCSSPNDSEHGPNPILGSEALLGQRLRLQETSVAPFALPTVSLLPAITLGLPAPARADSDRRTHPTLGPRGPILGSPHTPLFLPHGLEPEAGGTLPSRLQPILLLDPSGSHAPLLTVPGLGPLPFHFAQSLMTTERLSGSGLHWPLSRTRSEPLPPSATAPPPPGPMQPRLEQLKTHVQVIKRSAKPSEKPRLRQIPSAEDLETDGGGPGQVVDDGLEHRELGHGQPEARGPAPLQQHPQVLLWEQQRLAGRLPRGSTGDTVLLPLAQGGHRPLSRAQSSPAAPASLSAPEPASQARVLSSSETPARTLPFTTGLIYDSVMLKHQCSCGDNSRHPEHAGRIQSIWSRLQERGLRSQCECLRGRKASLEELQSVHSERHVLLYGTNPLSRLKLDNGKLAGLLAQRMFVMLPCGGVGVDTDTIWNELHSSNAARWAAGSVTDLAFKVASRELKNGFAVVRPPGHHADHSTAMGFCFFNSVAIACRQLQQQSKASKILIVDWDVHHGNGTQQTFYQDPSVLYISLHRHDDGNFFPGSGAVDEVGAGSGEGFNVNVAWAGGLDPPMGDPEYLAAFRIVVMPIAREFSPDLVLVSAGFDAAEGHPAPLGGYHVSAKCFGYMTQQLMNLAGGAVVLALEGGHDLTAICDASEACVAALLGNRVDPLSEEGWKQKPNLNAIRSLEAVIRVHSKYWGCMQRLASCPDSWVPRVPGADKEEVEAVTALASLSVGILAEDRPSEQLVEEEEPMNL
T3 sequence (Q9UQL6 whole entry, canonical isoform): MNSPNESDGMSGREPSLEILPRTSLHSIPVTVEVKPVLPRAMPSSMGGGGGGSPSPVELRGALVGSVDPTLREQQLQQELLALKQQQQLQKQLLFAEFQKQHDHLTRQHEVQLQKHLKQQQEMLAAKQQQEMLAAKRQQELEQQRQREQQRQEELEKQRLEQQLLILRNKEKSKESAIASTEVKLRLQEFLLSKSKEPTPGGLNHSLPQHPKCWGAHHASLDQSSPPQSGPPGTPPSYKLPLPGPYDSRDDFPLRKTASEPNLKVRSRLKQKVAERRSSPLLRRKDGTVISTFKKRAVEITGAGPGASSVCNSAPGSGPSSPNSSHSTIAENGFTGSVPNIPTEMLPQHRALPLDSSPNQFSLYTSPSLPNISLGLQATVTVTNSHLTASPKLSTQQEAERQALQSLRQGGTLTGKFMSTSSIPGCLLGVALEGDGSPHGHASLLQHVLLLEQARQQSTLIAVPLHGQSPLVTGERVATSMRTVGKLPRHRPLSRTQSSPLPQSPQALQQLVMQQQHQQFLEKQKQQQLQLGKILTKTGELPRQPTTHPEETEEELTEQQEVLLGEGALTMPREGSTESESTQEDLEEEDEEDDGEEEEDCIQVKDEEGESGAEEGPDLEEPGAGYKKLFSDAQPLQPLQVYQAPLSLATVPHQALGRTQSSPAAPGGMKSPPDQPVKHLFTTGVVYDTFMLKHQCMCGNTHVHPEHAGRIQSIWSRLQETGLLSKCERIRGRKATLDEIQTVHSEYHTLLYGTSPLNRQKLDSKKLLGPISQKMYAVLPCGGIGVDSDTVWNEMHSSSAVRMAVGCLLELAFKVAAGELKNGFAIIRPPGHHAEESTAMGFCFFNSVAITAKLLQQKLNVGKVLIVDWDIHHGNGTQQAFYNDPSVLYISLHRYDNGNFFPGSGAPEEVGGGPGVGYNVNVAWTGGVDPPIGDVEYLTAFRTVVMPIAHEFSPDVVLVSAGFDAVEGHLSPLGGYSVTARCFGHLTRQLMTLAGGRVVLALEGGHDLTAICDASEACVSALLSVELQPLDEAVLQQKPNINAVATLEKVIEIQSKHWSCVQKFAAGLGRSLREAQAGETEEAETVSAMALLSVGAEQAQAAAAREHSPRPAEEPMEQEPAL
T2 sequence (Q92769 whole entry, canonical isoform): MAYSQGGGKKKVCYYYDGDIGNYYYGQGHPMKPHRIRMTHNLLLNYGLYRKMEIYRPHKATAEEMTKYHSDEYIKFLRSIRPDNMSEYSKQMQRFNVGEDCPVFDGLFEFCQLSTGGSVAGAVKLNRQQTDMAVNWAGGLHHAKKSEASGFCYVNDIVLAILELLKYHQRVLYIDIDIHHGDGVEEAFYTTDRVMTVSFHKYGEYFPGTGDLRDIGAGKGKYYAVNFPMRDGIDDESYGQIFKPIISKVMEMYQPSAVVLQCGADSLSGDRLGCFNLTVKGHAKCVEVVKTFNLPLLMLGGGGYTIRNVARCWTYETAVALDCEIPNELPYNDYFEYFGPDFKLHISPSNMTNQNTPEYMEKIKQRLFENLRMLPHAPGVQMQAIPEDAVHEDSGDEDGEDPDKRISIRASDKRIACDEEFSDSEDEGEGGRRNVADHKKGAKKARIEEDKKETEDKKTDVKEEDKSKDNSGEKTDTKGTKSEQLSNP
Chain of hHDAC8 (Q9BY41 whole entry): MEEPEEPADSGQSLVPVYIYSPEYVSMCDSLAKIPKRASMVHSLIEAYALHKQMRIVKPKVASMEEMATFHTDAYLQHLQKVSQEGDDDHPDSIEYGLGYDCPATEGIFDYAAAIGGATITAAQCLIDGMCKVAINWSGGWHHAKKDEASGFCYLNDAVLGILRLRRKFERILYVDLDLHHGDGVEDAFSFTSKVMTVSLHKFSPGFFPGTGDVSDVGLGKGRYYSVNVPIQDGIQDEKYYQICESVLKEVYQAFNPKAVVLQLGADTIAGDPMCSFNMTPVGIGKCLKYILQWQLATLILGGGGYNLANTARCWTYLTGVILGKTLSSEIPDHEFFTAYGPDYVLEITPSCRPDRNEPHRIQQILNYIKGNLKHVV
T5 sequence (Q9UKV0 whole entry, canonical isoform): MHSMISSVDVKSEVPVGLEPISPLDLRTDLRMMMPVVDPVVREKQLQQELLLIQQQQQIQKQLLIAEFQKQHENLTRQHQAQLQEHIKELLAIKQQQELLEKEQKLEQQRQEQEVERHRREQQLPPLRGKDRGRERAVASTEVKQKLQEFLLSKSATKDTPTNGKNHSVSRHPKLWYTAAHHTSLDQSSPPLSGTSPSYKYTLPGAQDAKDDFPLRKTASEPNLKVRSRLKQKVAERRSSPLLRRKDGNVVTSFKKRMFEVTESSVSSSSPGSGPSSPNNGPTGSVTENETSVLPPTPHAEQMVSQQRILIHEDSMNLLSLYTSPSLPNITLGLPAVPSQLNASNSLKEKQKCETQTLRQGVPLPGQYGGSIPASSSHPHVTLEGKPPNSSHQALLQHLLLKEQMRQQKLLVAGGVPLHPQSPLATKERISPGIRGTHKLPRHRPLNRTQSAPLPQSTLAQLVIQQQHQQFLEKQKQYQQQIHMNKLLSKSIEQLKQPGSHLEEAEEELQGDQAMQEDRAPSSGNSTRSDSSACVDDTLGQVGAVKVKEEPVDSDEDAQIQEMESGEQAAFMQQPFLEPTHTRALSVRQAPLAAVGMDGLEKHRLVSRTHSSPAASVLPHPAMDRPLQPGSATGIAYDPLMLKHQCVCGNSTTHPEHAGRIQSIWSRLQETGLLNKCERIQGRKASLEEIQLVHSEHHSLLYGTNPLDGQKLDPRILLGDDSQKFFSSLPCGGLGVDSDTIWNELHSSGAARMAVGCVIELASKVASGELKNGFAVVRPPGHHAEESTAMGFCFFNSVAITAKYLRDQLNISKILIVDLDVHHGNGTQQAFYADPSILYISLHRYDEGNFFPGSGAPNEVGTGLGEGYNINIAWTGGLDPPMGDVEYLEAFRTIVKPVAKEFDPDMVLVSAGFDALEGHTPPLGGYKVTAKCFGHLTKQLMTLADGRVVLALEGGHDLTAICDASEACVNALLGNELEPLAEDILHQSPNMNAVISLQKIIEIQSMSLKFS
T1 sequence (Q13547 whole entry, canonical isoform): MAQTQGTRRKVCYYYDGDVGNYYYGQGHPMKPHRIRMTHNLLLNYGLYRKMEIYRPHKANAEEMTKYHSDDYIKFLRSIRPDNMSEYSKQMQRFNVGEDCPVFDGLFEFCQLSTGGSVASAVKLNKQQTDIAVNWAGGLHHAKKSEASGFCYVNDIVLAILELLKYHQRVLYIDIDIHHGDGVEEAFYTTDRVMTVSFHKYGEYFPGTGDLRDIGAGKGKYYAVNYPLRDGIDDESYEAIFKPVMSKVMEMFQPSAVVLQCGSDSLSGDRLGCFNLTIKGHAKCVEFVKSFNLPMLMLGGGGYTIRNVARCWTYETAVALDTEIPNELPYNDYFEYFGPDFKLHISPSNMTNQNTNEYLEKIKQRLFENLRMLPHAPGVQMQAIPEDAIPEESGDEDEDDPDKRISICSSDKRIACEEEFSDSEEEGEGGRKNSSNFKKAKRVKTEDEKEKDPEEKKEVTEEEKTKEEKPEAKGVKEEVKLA

O=C(CCCCCCNC(=O)c1cnc(N(c2ccccc2)c2ccccc2)nc1)NO [Ricolinostat]
EC50 (HEL 92.1.7; [3]): 4.4 µM
EC50 (HEL 92.1.7; [4]): 3.7 µM
IC50 (class I HDACs): ~0.05 µM

O=C(NO)c1ccc(CCCN2CCC(CN[C@H]3C[C@@H]3c3ccccc3)CC2)cc1 (relative stereo) [JBI-097]
IC50 (HDAC1): 3.4 µM
IC50 (HDAC2): 3.95 µM
IC50 (HDAC5): 1.14 µM
IC50 (HDAC7): 3.58 µM
IC50 (HDAC9): 3.43 µM
IC50 (remaining HDACs): ≥ 1.1 µM
Tm of HDAC8 incubated with compound (hHDAC8): 47 °C
Tm of LSD1 incubated with compound (human LSD1): 55 °C
cell growth inhibition reached (plateau) (HEL 92.1.7; HEL92.1.7, 6 days of incubation, up to 10 μM): 100%
EC50 (HEL 92.1.7; [3]): 0.722 µM
EC50 (HEL 92.1.7; [4]): 0.049 µM
EC50 (Colo-289): 2.19 µM
EC50 (G362): 7.64 µM
EC50 (H1341): 3.26 µM
EC50 (H2171): 2.7 µM
EC50 (H510A): 1.06 µM
EC50 (HL60-MX1): 0.034 µM
EC50 (HL60): 1.5 µM
EC50 (HT144): 3.14 µM
EC50 (Hep-G2): 1.1 µM
EC50 (Hep3B2): 1.3 µM
EC50 (MM1.R): 0.029 µM
EC50 (OCI-AML3): 0.03 µM
EC50 (RPMI-7591): 8.09 µM
EC50 (SKMeI2): 1.83 µM
EC50 (THP-1): 0.226 µM
EC50 (WM-266-4): 6.83 µM
EC50 [1]: 1.06 to 8.09 µM
CD11b modulation (mRNA) (CD11b): strong and sustained up-regulation
CD86 modulation (mRNA) (CD86): strong and sustained up-regulation
GFI1b modulation (mRNA) (GFI1b): strong and sustained up-regulation
acetylation of α-Tubulin (acetylation of α-Tubulin): time and concentration dependent increase
% tumor growth inhibition (TGI) ([2]; 25 mg/kg): 76%
body weight loss ([2]; 50 mg/kg group, observed in 2 animals): 5–10%
% tumor growth inhibition (TGI) ([2]; 50 mg/kg): 91%
TGI (MM1.S xenograft; JBI-097 12.5 mg/kg PO in combination with BTZ (0.5 mg/kg IP BIW)): 82%
tolerability (MM1.S xenograft; JBI-097 12.5 mg/kg PO in combination with Pomalidomide): well tolerated
TGI (MM1.S xenograft; JBI-097 12.5 mg/kg PO in combination with pomalidomide (2.5 mg/kg PO 5x/week)): 60%
TGI (MM1.S xenograft; single agent, 12.5 mg/Kg PO QD): 23%
TGI (CT-26 syngeneic tumors; JBI-097 20 mg/kg PO in combination with anti-PD-L1 100 μg/animal IP Q4D): 76%
TGI (CT-26 syngeneic tumors; JBI-097 alone, 20 mg/kg PO, 5 days on 2 days off): 50%
